Values after ≈ are worked out from the molar mass of the structure shown.

The conditions of the series: buffer; pH 7.4; 200.0 µM.
`O=C1NCCSC1c1ccccc1` (stereo not drawn): the solubility (kinetic) is more than 29 µg/mL.

The compound `FC(F)(F)c1ccc(Cl)c(-n2c(-c3ccco3)n[nH]c2=S)c1` came in with a solubility (kinetic) of more than 51.9 µg/mL.

With `CCCCn1c(O)c(C=NCc2ccc3c(c2)OCO3)c(=O)[nH]c1=O`, the solubility (kinetic) came to 6.8 µg/mL (≈ 19.7 µM).

On to `CN(C(=O)COC(=O)c1ccc[nH]c1=O)C1CCCCC1`, for which the kinetic solubility is more than 43.9 µg/mL.

In turn, `Cc1cc(=O)oc(C)c1C(=O)Nc1ccc(F)cc1` had a kinetic solubility of more than 39.2 µg/mL.

On to `COCCN=C(NS(=O)(=O)c1cccs1)c1ccccc1Cl`, for which the kinetic solubility was more than 53.8 µg/mL.

On to `Cc1ccc(-c2nc3ccccc3[nH]c2=O)cc1`, for which the kinetic solubility is 1 µg/mL (≈ 4.23 µM).

As for `O=C(CN1C(=O)COc2ccccc21)N1CCN(C2CCCCC2)CC1`, the kinetic solubility came to 49.2 µg/mL (≈ 138 µM).

As for `COc1ccc(C(=O)N2CCC3(CC2)NCCc2[nH]cnc23)cc1`, the kinetic solubility is more than 49 µg/mL.

`CN1c2ccccc2C(=O)NC1c1ccc(Cl)cc1` (stereo not drawn) displayed a solubility (kinetic) of more than 40.9 µg/mL.

`COc1ccccc1OCc1ccc(C(=O)NC2CCCCC2)o1` came in with a kinetic solubility of 39.8 µg/mL (≈ 121 µM).

As for `Cc1cccc(Nc2nc(-c3ccc(O)cc3O)cs2)n1`, the solubility (kinetic) stood at 4.7 µg/mL (≈ 15.7 µM).

Compound `COc1ccc2c(c1)C(=O)N(c1ccc(C)cc1C)C(=O)C2(C)C` gave a kinetic solubility of 5.3 µg/mL (≈ 16.4 µM).

In turn, `CC(Nc1ccc2c(c1)OCCO2)C(=O)N1c2ccccc2CC1C` (stereo not drawn) yielded a kinetic solubility of more than 50.8 µg/mL.

As to `Cc1ccc(CNc2ccc(N3CCOCC3)cc2)cc1`, the kinetic solubility is more than 42.4 µg/mL.

`CCN(CCCl)Cc1ccccc1Br.Cl` came in with a solubility (kinetic) of 42.1 µg/mL.

With `CN1CCN(S(=O)(=O)c2ccc(N(C)Cc3c(F)cccc3Cl)nc2)CC1`, the kinetic solubility was determined as 5.4 µg/mL (≈ 13.1 µM).

Consider `Cc1cc2nc(C)c3c(n2n1)CCC3`, for which the kinetic solubility is more than 28.1 µg/mL.

Regarding `OCCN1CCN(c2cc(C(F)(F)F)nc3c(F)cccc23)CC1`, the kinetic solubility was determined as 48.5 µg/mL (≈ 141 µM).

The compound `O=C(CN1CCOCC1)N1c2ccccc2Sc2ccccc21` gave a kinetic solubility of more than 49 µg/mL.

Compound `O=C(NCc1ccco1)C(=O)c1cn(CC(=O)N2CCCC2)c2ccccc12` displayed a solubility (kinetic) of more than 56.9 µg/mL.

As to `O=C(c1c(F)cccc1F)N1CCN=C1SCc1ccccc1`, the kinetic solubility is 18.5 µg/mL (≈ 55.7 µM).

Take `O=C(NCCN1CCOCC1)c1c(O)nc2ccccn2c1=O`: the solubility (kinetic) was more than 47.7 µg/mL.

`CC(=O)c1c(C)[nH]c(C(=O)NCCc2c[nH]c3ccccc23)c1C` showed a solubility (kinetic) of 1.4 µg/mL (≈ 4.33 µM).

Turning to `O=c1nc(-c2ccccc2Cl)c2cc(F)ccc2[nH]1`, the kinetic solubility stood at 38.9 µg/mL (≈ 142 µM).

`COc1ccc2c(c1)c(C(=O)O)c(C)n2-c1ccccc1` came in with a solubility (kinetic) of 38.4 µg/mL (≈ 137 µM).

For `CCN(C(=O)C12CC3CC(CC(C3)C1)C2)C1CCS(=O)(=O)C1` (stereo not drawn), the kinetic solubility is more than 48.8 µg/mL.

Turning to `N#Cc1cc2c([nH]c1=O)CCCC2`, the solubility (kinetic) was more than 26.1 µg/mL.

In turn, `Cc1cccc2sc(NC(=O)CCn3cccc3)nc12` returned a solubility (kinetic) of 5.7 µg/mL (≈ 20 µM).

With `Cc1nn(C)cc1S(=O)(=O)Nc1cccc(Cl)c1`, the solubility (kinetic) was more than 42.9 µg/mL.

Take `Cc1cc(C(=O)Nc2ccon2)c(C)o1`: the solubility (kinetic) was more than 30.9 µg/mL.

The compound `CCOC(=O)N1CCN(C(=O)CCc2ccccc2)CC1` displayed a kinetic solubility of more than 43.6 µg/mL.

Consider `COc1ccc(C)cc1Nc1ccc(C(=O)O)cc1[N+](=O)[O-]`, for which the kinetic solubility stood at 44.3 µg/mL (≈ 147 µM).

In turn, `COC(=O)c1ccc2nc(NC(=O)C3CC3)sc2c1` came in with a kinetic solubility of 4.1 µg/mL (≈ 14.8 µM).

Take `CC(C)n1c(SCC(=O)NC2CC2)nnc1C1CC1`: the kinetic solubility is more than 42.1 µg/mL.

In turn, `CCC(=O)c1cn(CC(=O)Nc2ccc(C)cc2)c2ccccc12` had a kinetic solubility of less than 0.3 µg/mL.

As for `Cc1ccc(C(C)c2c(C)c([N+](=O)[O-])cc(C)c2[N+](=O)[O-])cn1` (stereo not drawn), the solubility (kinetic) stood at 13.4 µg/mL (≈ 42.5 µM).

`CC1CN(C(C)C(=O)NC(c2ccccc2)c2ccccc2)CC(C)O1` (stereo not drawn) registered a kinetic solubility of more than 52.9 µg/mL.

On to `COc1cc(C)nc(NS(=O)(=O)c2ccccc2Cl)n1`, for which the solubility (kinetic) came out at 38.9 µg/mL (≈ 124 µM).

Consider `O=C1CN(C(=O)COc2ccc(F)cc2Cl)c2ccccc2N1`, for which the solubility (kinetic) was more than 50.2 µg/mL.

For the compound `COc1cc(C(=O)NCCCCc2ccccc2)cc(OC)c1OC`, the kinetic solubility came to 4.5 µg/mL (≈ 13.1 µM).

For `O=C(NC1CCN(C(=S)Nc2ccccc2)CC1)C1CCCCC1`, the solubility (kinetic) was found to be 2.1 µg/mL (≈ 6.08 µM).

Turning to `CCOC(=O)C1CCCN(C(=O)c2ccc3ncsc3c2)C1` (stereo not drawn), the kinetic solubility is more than 47.8 µg/mL.

`Cc1ccn2c(=O)cc(C)nc2c1` had a kinetic solubility of more than 26.1 µg/mL.

For `O=C(Cn1c(=O)oc2ccccc21)Nc1ccc(Cl)cc1`, the kinetic solubility was determined as 1.8 µg/mL (≈ 5.95 µM).

With `NC(=O)CSc1nc2cccnc2n1-c1ccc(F)cc1`, the kinetic solubility came out at 45.2 µg/mL (≈ 150 µM).

`COCCNC(=S)Nc1ccc([N+](=O)[O-])cc1C` came in with a kinetic solubility of more than 40.4 µg/mL.

For `CC1CN(S(=O)(=O)c2ccc(C(=O)N(C)C3CCCCC3)cc2)CC(C)O1` (stereo not drawn), the solubility (kinetic) was more than 59.2 µg/mL.

`CCOC(=O)CCNC(=O)CCNC(=O)C(c1ccccc1)c1ccccc1` returned a kinetic solubility of more than 57.4 µg/mL.

For the compound `Cc1cc(C)nc(N2Cc3ccccc3C2=N)n1`, the solubility (kinetic) was more than 35.7 µg/mL.

`Cc1ccc(NC(=O)Cn2c([N+](=O)[O-])cnc2C)cc1`: the solubility (kinetic) is more than 41.1 µg/mL.

With `O=C1N=C(N2CCCCC2)S/C1=C\c1ccccc1F`, the solubility (kinetic) was 4.7 µg/mL (≈ 16.2 µM).

`Cc1cnc(NCCc2ccccc2)s1`: the solubility (kinetic) was 23 µg/mL (≈ 105 µM).

A word on the kinetic solubility: it is solubility judged after dilution from a stock solution rather than from solid.

For the origin of these results see PubChem BioAssay AID1996.
